According to patent US8722717B2, “3-triazolylphenyl-substituted sulphide derivatives as acaricides and insecticides” (Bayer CropScience AG, priority 2009, dated 2014):

What was measured:
Boophilus microplus [1] = assay: Boophilus microplus test (BOOPMI injection); type: in vivo; conditions: injection into the abdomen, 20 μg/animal, after 7 days
Protocol: Solvent: Dimethyl Sulphoxide An appropriate preparation of active compound is prepared by mixing 10 mg of active compound with 0.5 ml of solvent and diluting the concentrate with solvent to the desired concentration. The solution of active compound is injected into the abdomen (Boophilus microplus) and the animals are transferred into dishes and kept in a controlled atmosphere. The activity is assessed on the basis of deposition of fertile eggs. After 7 days, the effect in % is determined. Here, 100% means that none of the ticks has laid fertile eggs.

[2] = log P by HPLC/LC-MS on reversed-phase C18, formic acid method [b]; type: physicochemical; conditions: reversed-phase C18 HPLC column; pH 2.7, 0.1% aqueous formic acid and acetonitrile; read-out: logP (HCOOH)
Protocol: (§1) The log P values reported in the table above and in the preparation examples were determined in accordance with EEC Directive 79/831 Annex V.A8 by HPLC (High Performance Liquid Chromatography) on reversed-phase columns (C 18), with the following methods: ^[b] The determination is made by LC-MS in the acid range at pH 2.7 with 0.1% aqueous formic acid and acetonitrile (containing 0.1% formic acid) as eluents; linear gradient from 10% acetonitrile to 95% acetonitrile. Calibration took place with unbranched alkan-2-ones (having 3 to 16 carbon atoms) of known log P values (log P values determined from the retention times by linear interpolation between two successive alkanones).

[3] = tested on: greenhouse red spidermite (Tetranychus urticae); assay: Tetranychus test; OP resistant (TETRUR spray treatment), Example 5; type: in vivo; conditions: foliar, 144 h, spray on bean leaf discs, after 6 days, read-out: effect (100% means that all of the mites have been killed); for pest or weed control at 100 g/ha: application rate 100 g/ha; for pest or weed control at 500 g/ha: application rate 500 g/ha
Protocol: (§2) Solvents: 78.0 parts by weight of acetone • • 1.5 parts by weight of dimethylformamide Emulsifier: 0.5 part by weight of alkylaryl polyglycol ether An appropriate preparation of active compound is prepared by mixing 1 part by weight of active compound with the stated amounts of solvent and emulsifier and diluting the concentrate with emulsifier-containing water to the desired concentration. Leaf discs of bean (Phaseolus vulgaris) infested by all stages of the greenhouse red spidermite (Tetranychus urticae) are sprayed with a preparation of active compound at the desired concentration. After 6 days, the effect in % is determined. Here, 100% means that all of the mites have been killed; 0% means that no mites have been killed.

Boophilus microplus [4] = assay: Boophilus microplus (dip); type: in vivo; conditions: application rate 100 ppm, after 7 days
Protocol: Solvent: Dimethyl Sulphoxide A quantity of 10 mg of active compound is dissolved in 0.5 ml of dimethyl sulphoxide. To prepare a suitable formulation, the active compound solution is diluted with water to the particular desired concentration. This active compound preparation is pipetted into tubes. A quantity of 8-10 ticks is transferred into a further tube with holes. The tube is immersed in the active compound preparation, with all of the ticks being fully wetted. After the liquid has run off, the ticks are transferred to filter discs in plastic dishes and are kept in a conditioned room. The effect is monitored after 7 days on the basis of deposition of fertile eggs. Eggs whose fertility is not externally visible are stored in glass tubes until the larvae hatch, in a controlled-climate box. An activity of 100% means that none of the ticks has laid fertile eggs.

[5] = log P by HPLC on reversed-phase C18, phosphoric acid method [a]; type: physicochemical; conditions: reversed-phase C18 HPLC column; pH 2.3, 0.1% aqueous phosphoric acid and acetonitrile; read-out: logP (H3PO4)
Protocol: as §1, with “^[a]” for “^[b]”, “made” for “made by LC-MS”, “2.3” for “2.7”, “phosphoric” for “formic”, “acetonitrile” for “acetonitrile (containing 0.1% formic acid)”

[6] = tested on: green peach aphid (Myzus persicae); assay: Myzus test (MYZUPE spray treatment); type: in vivo; conditions: spray on Chinese cabbage leaf discs, application rate 500 g/ha, after 6 days
Protocol: as §2, with “Solvent: 78” for “Solvents: 78.0”, “Chinese cabbage (Brassica pekinensis)” for “bean (Phaseolus vulgaris)”, “green peach aphid (Myzus persicae)” for “greenhouse red spidermite (Tetranychus urticae)”, “aphids” for “mites”

[7] = tested on: larvae of the mustard beetle (Phaedon cochleariae); assay: Phaedon test (PHAECO spray treatment); type: in vivo; conditions: foliar, spray on Chinese cabbage leaf discs, application rate 500 g/ha, read-out: effect (100% means that all of the beetle larvae have been killed)
Protocol: Solvents: 78.0 parts by weight of acetone • • 1.5 parts by weight of dimethylformamide Emulsifier: 0.5 part by weight of alkylaryl polyglycol ether An appropriate preparation of active compound is prepared by mixing 1 part by weight of active compound with the stated amounts of solvent and emulsifier and diluting the concentrate with emulsifier-containing water to the desired concentration. Leaf discs of Chinese cabbage (Brassica pekinensis) are sprayed with a preparation of active compound at the desired concentration and, after they have dried, are populated with larvae of the mustard beetle (Phaedon cochleariae). After the desired time, the effect in % is determined. Here, 100% means that all of the beetle larvae have been killed; 0% means that no beetle larvae have been killed.

Meloidogyne incognita = Meloidogyne incognita test (MELGIN); type: in vivo; conditions: application rate 20 ppm, lettuce in sand, after 14 days
Protocol: Solvents: 80.0 parts by weight of acetone An appropriate preparation of active compound is prepared by mixing 1 part by weight of active compound with the stated amounts of solvent and emulsifier and diluting the concentrate with water to the desired concentration. Pots are filled with sand, solution of active compound, meloidogyne incognita egg/larvae suspension, and lettuce seeds. The lettuce seeds germinate and the plants develop. On the roots, the galls develop. After 14 days, the nematicidal effect is determined from the gall formation, in %. Here, 100% means that no galls were found; 0% means that the number of galls on the treated plants corresponds to that for the untreated control.

[8] = tested on: greenhouse red spidermite (Tetranychus urticae); assay: Tetranychus test; OP resistant (TETRUR spray treatment), Example 7, comparison with prior art; type: in vivo; conditions: 6 d
Protocol: as §2, with “the desired time,” for “6 days,”

Row | SMILES | chromatographic logP [2] | pest or weed control at 100 g/ha [3] | pest or weed control at 500 g/ha [3] | pest or weed control at 500 g/ha [7] | also measured
1 | Cc1cc(C)c([S+]([O-])CC(F)F)cc1-n1cnc(C(F)(F)F)n1 (stereo not drawn) [I-A-2, 3-(trifluoromethyl)-1-{2,4-dimethyl-5-[(2,2-difluoroethyl)sulphinyl]phenyl}-1H-1,2,4-triazole] | 2.41 | 100% | – | – | activity (100% means that none of the ticks has laid fertile eggs) (Boophilus microplus [1]): 100%
2 | Cc1cc(C)c(-n2cnc(C(F)(F)F)n2)cc1SCC(F)(F)C(F)F [I-A-3] | – | – | 100% | – | activity (100% means that none of the ticks has laid fertile eggs) (Boophilus microplus [1]): 100%; activity (100% means that none of the ticks has laid fertile eggs) (Boophilus microplus [4]): 90%; chromatographic logP [5]: 3.98
3 | Cc1cc(C)c(-n2cnc(C(F)(F)F)n2)cc1SCC(F)(F)C(F)(F)F [I-A-4] | – | 100% | 100% | – | activity (100% means that none of the ticks has laid fertile eggs) (Boophilus microplus [1]): 100%; activity (100% means that none of the ticks has laid fertile eggs) (Boophilus microplus [4]): 90%; chromatographic logP [5]: 4.49
4 | Cc1cc(C)c([S+]([O-])CC(F)(F)C(F)F)cc1-n1cnc(C(F)(F)F)n1 (stereo not drawn) [I-A-5] | – | – | 100% | – | activity (100% means that none of the ticks has laid fertile eggs) (Boophilus microplus [1]): 100%; activity (100% means that all of the aphids have been killed) [6]: 90%; chromatographic logP [5]: 2.88
5 | Cc1cc(C)c([S+]([O-])CC#N)cc1-n1cnc(C(F)(F)F)n1 (stereo not drawn) [I-A-8] | 2.07 | – | 100% | – | –
6 | Cc1cc(C)c([S+]([O-])CC(F)(F)C(F)(F)F)cc1-n1cnc(C(F)(F)F)n1 (stereo not drawn) [I-A-10] | – | – | 100% | – | chromatographic logP [5]: 3.29
7 | Cc1cc(Cl)c(-n2cnc(C(F)(F)F)n2)cc1SCC#N [I-A-12] | 3.12 | – | 100% | – | –
8 | Cc1cc(F)c(-n2cnc(C(F)(F)F)n2)cc1SCC#N [I-A-13] | 2.93 | – | 100% | – | –
9 | Cc1cc(F)c(-n2cnc(C(F)(F)F)n2)cc1[S+]([O-])CC#N (stereo not drawn) [I-A-15] | 1.99 | – | 100% | – | –
10 | Cc1cc(Cl)c(-n2cnc(C(F)(F)F)n2)cc1SCC(F)F [I-A-16] | 3.75 | 100% | – | 100% | –
11 | Cc1cc(C)c(-n2cnc(C(F)(F)F)n2)cc1SCCC(F)(F)F [I-A-20] | 4.32 | 100% | – | – | activity (100% means that all of the aphids have been killed) [6]: 100%
12 | Cc1cc(F)c(-n2cnc(C(F)(F)F)n2)cc1SCC(F)(F)C(F)(F)F [I-A-22] | 4.4 | 100% | – | – | –
13 | Cc1cc(Cl)c(-n2cnc(C(F)(F)F)n2)cc1[S+]([O-])CC(F)(F)C(F)F (stereo not drawn) [I-A-23] | 3.01 | – | 100% | 100% | –
14 | Cc1ccc(-n2cnc(C(F)(F)F)n2)c(C)c1 [IV-A-1, 3-(Trifluoromethyl)-1-(2,4-dimethylphenyl)-1H-1,2,4-triazole] | 3.19 | – | – | – | –
15 | Cc1cc(C)c(-n2cnc(C(F)(F)F)n2)cc1SCC(F)(F)F [VI -297, reference compound] | – | – | – | – | % effect after application ([8]; 4 g/ha): 0%; % effect after application ([8]; 20 g/ha): 70%

More lines, main results first:

Row | chromatographic logP [2] | SMILES | pest or weed control at 100 g/ha [3] | pest or weed control at 500 g/ha [3] | pest or weed control at 500 g/ha [7] | also measured
16 | 3.74 | Cc1cc(C)c(-n2cnc(C(F)(F)F)n2)cc1SCC(F)F [I-A-1, 3-(trifluoromethyl)-1-{2,4-dimethyl-5-[(2,2-difluoroethyl)sulphanyl]phenyl}-1H-1,2,4-triazole] | 100% | – | – | activity (100% means that none of the ticks has laid fertile eggs) (Boophilus microplus [1]): 100%
17 | 3.57 | Cc1cc(F)c(-n2cnc(C(F)(F)F)n2)cc1SCC(F)F [I-A-6] | 100% | – | 100% | –
18 | 2.86 | Cc1cc(C)c([S+]([O-])CCC(F)(F)F)cc1-n1cnc(C(F)(F)F)n1 (stereo not drawn) [I-A-7] | 90% | – | – | –
19 | 3.08 | Cc1cc(C)c(-n2cnc(C(F)(F)F)n2)cc1SCC#N [I-A-9] | 100% | – | – | –
20 | 2.17 | Cc1cc(Cl)c(-n2cnc(C(F)(F)F)n2)cc1[S+]([O-])CC#N (stereo not drawn) [I-A-11] | – | 100% | – | nematicidal effect from gall formation (100% means that no galls were found) (Meloidogyne incognita): 90%
21 | 3.4 | Cc1cc(Cl)c(-n2cnc(C(F)(F)F)n2)cc1[S+]([O-])CC(F)(F)C(F)(F)F (stereo not drawn) [I-A-14] | – | 100% | 100% | –
22 | 4.06 | Cc1cc(Cl)c(-n2cnc(C(F)(F)F)n2)cc1SCC(F)(F)C(F)F [I-A-17] | 100% | – | 100% | –
23 | 2.79 | Cc1cc(F)c(-n2cnc(C(F)(F)F)n2)cc1[S+]([O-])CC(F)(F)C(F)F (stereo not drawn) [I-A-18] | 100% | – | 100% | –
24 | 2.33 | Cc1cc(F)c(-n2cnc(C(F)(F)F)n2)cc1[S+]([O-])CC(F)F (stereo not drawn) [I-A-19] | 100% | – | 100% | –
25 | 2.54 | Cc1cc(Cl)c(-n2cnc(C(F)(F)F)n2)cc1[S+]([O-])CC(F)F (stereo not drawn) [I-A-21] | – | 100% | – | –
26 | 3.87 | Cc1cc(F)c(-n2cnc(C(F)(F)F)n2)cc1SCC(F)(F)C(F)F [I-A-24] | 100% | – | 100% | –
27 | 3.22 | Cc1cc(F)c(-n2cnc(C(F)(F)F)n2)cc1[S+]([O-])CC(F)(F)C(F)(F)F (stereo not drawn) [I-A-25] | 100% | – | 100% | –
28 | 4.57 | Cc1cc(Cl)c(-n2cnc(C(F)(F)F)n2)cc1SCC(F)(F)C(F)(F)F [I-A-26] | 90% | – | – | –
